Measurements taken from article PMC4121215, “Cytotoxic Constituents from the Rhizomes of Curcuma zedoaria” (The Scientific World Journal, 2014).
Converted amounts (≈) assume the structure as drawn.

Test system: MCF-7 (breast cancer)
Assay: cells
Assay type: cell-based
Conditions: Homo sapiens, MCF7; isolated compounds; MTT, 72 h; mean ± SD of three replicates
Experimental: (§1) The human cell lines MCF-7 (breast cancer), Ca Ski (cervical cancer), and HT-29 (colon cancer) were cultured as monolayer in RPMI 1640 growth media. HUVEC (human umbilical vein endothelial cells) and PC-3 (prostate cancer) cells were cultured in DMEM. All cells were purchased from the American Tissue Culture Collection (ATCC, USA) except for human umbilical vein endothelial cells (HUVEC) which were obtained from ScienCell Research Laboratories (Carlsbad, CA). All the media were supplemented with 10% v/v foetal bovine serum (FBS), 100 μg/mL penicillin/streptomycin, and 50 μg/mL amphotericin B. The cells were cultured in a 5% CO2 incubator at 37°C.
(§2) Cell viability was investigated using 3-(4, 5-dimethylthiazol-2-yl)-2, 5-diphenyltetrazolium bromide (MTT) assay. Cells were detached from the […] tissue culture flask when it achieved 80% confluency. The detached cells were pellet by centrifugation (1,000 rpm; 5 minutes). Cells (3.0 × 10^4 cells/mL) were seeded onto a 96-well microtiter plate (Nunc). The cells were incubated at 37°C CO2 incubator for 24 h to give adherent cells. The test compounds (1–100 μg/mL) were added onto the 96-well microtiter plate containing adherent cells. The untreated cells were incubated in 10% media containing 0.5% DMSO (without addition of any test compounds/extracts). This mixture was regarded as the negative control whereas doxorubicin as the positive control. The plates were incubated for 72 h at 37°C in a 5% CO2 incubator. After 72 h, the media were removed and 100 μL of fresh medium and 20 μL of MTT (Sigma, filter sterile, 5 mg/mL) were added to each well and further incubated for 4 hours (37°C) after which the media were substituted with 150 μL DMSO. The 96-well microtiter plates were then agitated at room temperature onto an incubator shaker to dissolve the formazan crystals. The absorbance (A) of the content of the plates was measured at 540 nm using a microplate reader. The percentage of inhibition of each test sample was calculated according to the following formula: Percentage of inhibition (%) = (A control − A sample)/A control × 100%. The average of three replicates was then obtained. The IC50 for each extract was extrapolated from the graphs of the percentage inhibition versus concentration of test agents. Cytotoxicity of each test agent is expressed as IC50 value. The IC50 value is the concentration of test agents that cause 50% inhibition or cell death, averaged from the three experiments. The selectivity index (SI) was also calculated as described by using the ratio between IC50 of the extract or compounds on normal cell lines (HUVEC) and IC50 of the tested extract or compounds on cancerous cell lines. Selectivity index (SI) values equal or greater than three were considered to have a high selectivity towards cancerous cells. An SI value denotes the selectivity of the sample to the tested cell lines.
In the case of `C=C1CC[C@H]2C(C)(C)CCC[C@]2(C)[C@H]1C/C=C(/C=O)CC=O` [Compound 1, labda-8(17),12 diene-15,16 dial], the IC50 is reported as 16.3 ± 0.2 µg/mL (≈ 53.9 µM). `CC1=CC(=O)C(=C(C)C)C[C@H]2[C@H]1CC[C@]2(C)O` [Compound 6, procurcumenol] showed an IC50 of 16.1 ± 2.2 µg/mL (≈ 68.7 µM). Work on `C=C1CC[C@H]2C(C)(C)CCC[C@]2(C)[C@H]1CC=C(C=O)CC(=O)O` (stereo in doubt) [Compound 16, zerumin A] yielded an IC50 of 22.3 ± 1.1 µg/mL (≈ 70 µM). Compound `C=C(C)C(=O)C[C@]12OC(=O)C=C(C)[C@@H]1CC[C@@H]2C` [Compound 18, curcuzedoalide] has an IC50 of 49.8 ± 3.6 µg/mL (≈ 201 µM).

Same assay, conditions: MTT assay
For `C=C1CC[C@H]2C(C)(C)CCC[C@]2(C)[C@H]1C/C=C(/C=O)CC=O` [Compound 1, labda-8(17),12 diene-15,16 dial], the “antiproliferative/cytotoxic activity against MCF-7 (in words)” value was “moderate cytotoxicity”.

Same assay, conditions: isolated compounds; IC50 HUVEC / IC50 MCF-7
For `C=C1CC[C@H]2C(C)(C)CCC[C@]2(C)[C@H]1C/C=C(/C=O)CC=O` [Compound 1, labda-8(17),12 diene-15,16 dial], the “SI (selectivity index) MCF-7” value was 2.8. With `CC1=CC(=O)C(=C(C)C)C[C@H]2[C@H]1CC[C@]2(C)O` [Compound 6, procurcumenol] the “SI (selectivity index) MCF-7” value was 1.0. With `C=C1CC[C@H]2C(C)(C)CCC[C@]2(C)[C@H]1CC=C(C=O)CC(=O)O` (stereo in doubt) [Compound 16, zerumin A] the “SI (selectivity index) MCF-7” value was 1.2. For `C=C(C)C(=O)C[C@]12OC(=O)C=C(C)[C@@H]1CC[C@@H]2C` [Compound 18, curcuzedoalide], the “SI (selectivity index) MCF-7” value was 0.9.

Test system: Ca Ski (cervical cancer)
Assay: cells
Assay type: cell-based
Conditions: Homo sapiens, Ca-Ski; isolated compounds; MTT, 72 h; mean ± SD of three replicates
Experimental: as §1, §2
`C=C1CC[C@H]2C(C)(C)CCC[C@]2(C)[C@H]1C/C=C(/C=O)CC=O` [Compound 1, labda-8(17),12 diene-15,16 dial] gave an IC50 of 14.5 ± 0.1 µg/mL (≈ 47.9 µM). Compound `CC1=CC(=O)C(=C(C)C)C[C@H]2[C@H]1CC[C@]2(C)O` [Compound 6, procurcumenol] has an IC50 of 62.4 ± 0.3 µg/mL (≈ 266 µM).

Same assay, conditions: MTT assay
With `C=C1CC[C@H]2C(C)(C)CCC[C@]2(C)[C@H]1C/C=C(/C=O)CC=O` [Compound 1, labda-8(17),12 diene-15,16 dial] the “antiproliferative/cytotoxic activity against Ca Ski (in words)” value was “moderate cytotoxicity”.

Same assay, conditions: isolated compounds; IC50 HUVEC / IC50 Ca Ski
With `C=C1CC[C@H]2C(C)(C)CCC[C@]2(C)[C@H]1C/C=C(/C=O)CC=O` [Compound 1, labda-8(17),12 diene-15,16 dial] the “SI (selectivity index) Ca Ski” value was 3.1. In the case of `CC1=CC(=O)C(=C(C)C)C[C@H]2[C@H]1CC[C@]2(C)O` [Compound 6, procurcumenol], the “SI (selectivity index) Ca Ski” value is reported as 0.3.

Test system: HUVEC (human umbilical vein endothelial cells)
Assay: cells
Assay type: cell-based
Conditions: Homo sapiens, HUVEC; isolated compounds; MTT, 72 h; normal cells
Experimental: as §1, §2
`C=C1CC[C@H]2C(C)(C)CCC[C@]2(C)[C@H]1C/C=C(/C=O)CC=O` [Compound 1, labda-8(17),12 diene-15,16 dial] gave an IC50 of 45.3 ± 1.9 µg/mL (≈ 150 µM). In the case of `CC1=CC(=O)C(=C(C)C)C[C@H]2[C@H]1CC[C@]2(C)O` [Compound 6, procurcumenol], the IC50 is reported as 16.3 ± 1 µg/mL (≈ 69.6 µM). With `C=C1CC[C@H]2C(C)(C)CCC[C@]2(C)[C@H]1CC=C(C=O)CC(=O)O` (stereo in doubt) [Compound 16, zerumin A] the IC50 was 25.8 ± 1.9 µg/mL (≈ 81 µM). `C=C(C)C(=O)C[C@]12OC(=O)C=C(C)[C@@H]1CC[C@@H]2C` [Compound 18, curcuzedoalide] showed an IC50 of 45.3 ± 7.8 µg/mL (≈ 182 µM).

Test system: MCF-7
Assay: not given
Set-up: method as in PMID 21629182
Conditions: zerumin A isolated from Curcuma mangga; cited from earlier work
In the case of `C=C1CC[C@H]2C(C)(C)CCC[C@]2(C)[C@H]1CC=C(C=O)CC(=O)O` (stereo in doubt) [Compound 16, zerumin A], the “IC50 MCF-7” value is listed as 14.2 ± 0.06 µg/mL (≈ 44.6 µM).

Test system: HT-29 (colon cancer)
Assay: MTT cytotoxicity assay, HT-29
Assay type: cell-based
Conditions: Homo sapiens, HT-29; isolated compounds; MTT, 72 h; mean ± SD of three replicates
Experimental: as §1, §2
Compound `C=C1CC[C@H]2C(C)(C)CCC[C@]2(C)[C@H]1C/C=C(/C=O)CC=O` [Compound 1, labda-8(17),12 diene-15,16 dial] has an IC50 of 21.5 ± 3.1 µg/mL (≈ 71.1 µM). With `CC1=CC(=O)C(=C(C)C)C[C@H]2[C@H]1CC[C@]2(C)O` [Compound 6, procurcumenol] the IC50 was 15.5 ± 2.3 µg/mL (≈ 66.1 µM). With `C=C1CC[C@H]2C(C)(C)CCC[C@]2(C)[C@H]1CC=C(C=O)CC(=O)O` (stereo in doubt) [Compound 16, zerumin A] the IC50 was 17.4 ± 2 µg/mL (≈ 54.6 µM). Work on `C=C(C)C(=O)C[C@]12OC(=O)C=C(C)[C@@H]1CC[C@@H]2C` [Compound 18, curcuzedoalide] yielded an IC50 of 58.2 ± 3.5 µg/mL (≈ 234 µM).

Same assay, conditions: MTT assay
In the case of `C=C1CC[C@H]2C(C)(C)CCC[C@]2(C)[C@H]1C/C=C(/C=O)CC=O` [Compound 1, labda-8(17),12 diene-15,16 dial], the “antiproliferative/cytotoxic activity against HT-29 (in words)” value is reported as “moderate inhibitory activity”. In the case of `CC1=CC(=O)C(=C(C)C)C[C@H]2[C@H]1CC[C@]2(C)O` [Compound 6, procurcumenol], the “antiproliferative/cytotoxic activity against HT-29 (in words)” value is reported as “good cytotoxic effect”. With `C=C1CC[C@H]2C(C)(C)CCC[C@]2(C)[C@H]1CC=C(C=O)CC(=O)O` (stereo in doubt) [Compound 16, zerumin A] the “antiproliferative/cytotoxic activity against HT-29 (in words)” value was “moderate inhibitory activity”.

Same assay, conditions: isolated compounds; IC50 HUVEC / IC50 HT-29
With `C=C1CC[C@H]2C(C)(C)CCC[C@]2(C)[C@H]1C/C=C(/C=O)CC=O` [Compound 1, labda-8(17),12 diene-15,16 dial] the “SI (selectivity index) HT-29” value was 2.1. For `CC1=CC(=O)C(=C(C)C)C[C@H]2[C@H]1CC[C@]2(C)O` [Compound 6, procurcumenol], the “SI (selectivity index) HT-29” value was 1.1. In the case of `C=C1CC[C@H]2C(C)(C)CCC[C@]2(C)[C@H]1CC=C(C=O)CC(=O)O` (stereo in doubt) [Compound 16, zerumin A], the “SI (selectivity index) HT-29” value is reported as 1.5. In the case of `C=C(C)C(=O)C[C@]12OC(=O)C=C(C)[C@@H]1CC[C@@H]2C` [Compound 18, curcuzedoalide], the “SI (selectivity index) HT-29” value is reported as 0.8.

Test system: Ca Ski
Assay: not given
Set-up: method as in PMID 21629182
Conditions: zerumin A isolated from Curcuma mangga; cited from earlier work
For `C=C1CC[C@H]2C(C)(C)CCC[C@]2(C)[C@H]1CC=C(C=O)CC(=O)O` (stereo in doubt) [Compound 16, zerumin A], the “IC50 Ca Ski” value is listed as 8.7 ± 0.29 µg/mL (≈ 27.3 µM).

Test system: PC-3 (prostate cancer)
Assay: MTT cytotoxicity assay, PC-3
Assay type: cell-based
Conditions: Homo sapiens; isolated compounds; MTT, 72 h; mean ± SD of three replicates
Experimental: as §1, §2
Work on `C=C1CC[C@H]2C(C)(C)CCC[C@]2(C)[C@H]1C/C=C(/C=O)CC=O` [Compound 1, labda-8(17),12 diene-15,16 dial] yielded an IC50 of 26.3 ± 2.4 µg/mL (≈ 87 µM). With `CC1=CC(=O)C(=C(C)C)C[C@H]2[C@H]1CC[C@]2(C)O` [Compound 6, procurcumenol] the IC50 was 13.3 ± 1.7 µg/mL (≈ 56.8 µM). Compound `C=C1CC[C@H]2C(C)(C)CCC[C@]2(C)[C@H]1CC=C(C=O)CC(=O)O` (stereo in doubt) [Compound 16, zerumin A] has an IC50 of 21.9 ± 1.6 µg/mL (≈ 68.8 µM). Work on `C=C(C)C(=O)C[C@]12OC(=O)C=C(C)[C@@H]1CC[C@@H]2C` [Compound 18, curcuzedoalide] yielded an IC50 of 62.1 ± 8.1 µg/mL (≈ 250 µM).

Same assay, conditions: MTT assay
With `C=C1CC[C@H]2C(C)(C)CCC[C@]2(C)[C@H]1C/C=C(/C=O)CC=O` [Compound 1, labda-8(17),12 diene-15,16 dial] the “antiproliferative/cytotoxic activity against PC-3 (in words)” value was “moderate inhibitory activity”. In the case of `CC1=CC(=O)C(=C(C)C)C[C@H]2[C@H]1CC[C@]2(C)O` [Compound 6, procurcumenol], the “antiproliferative/cytotoxic activity against PC-3 (in words)” value is reported as “good cytotoxic effect”. In the case of `C=C1CC[C@H]2C(C)(C)CCC[C@]2(C)[C@H]1CC=C(C=O)CC(=O)O` (stereo in doubt) [Compound 16, zerumin A], the “antiproliferative/cytotoxic activity against PC-3 (in words)” value is reported as “moderate inhibitory activity”.

Same assay, conditions: isolated compounds; IC50 HUVEC / IC50 PC-3
With `C=C1CC[C@H]2C(C)(C)CCC[C@]2(C)[C@H]1C/C=C(/C=O)CC=O` [Compound 1, labda-8(17),12 diene-15,16 dial] the “SI (selectivity index) PC-3” value was 1.7. In the case of `CC1=CC(=O)C(=C(C)C)C[C@H]2[C@H]1CC[C@]2(C)O` [Compound 6, procurcumenol], the “SI (selectivity index) PC-3” value is reported as 1.2. In the case of `C=C1CC[C@H]2C(C)(C)CCC[C@]2(C)[C@H]1CC=C(C=O)CC(=O)O` (stereo in doubt) [Compound 16, zerumin A], the “SI (selectivity index) PC-3” value is reported as 1.2. With `C=C(C)C(=O)C[C@]12OC(=O)C=C(C)[C@@H]1CC[C@@H]2C` [Compound 18, curcuzedoalide] the “SI (selectivity index) PC-3” value was 0.7.
